One molecule from publication PMC9944496 (Food Chemistry: X, 2023) can be followed below.

The target in the assay is T1, AbXOD (Acinetobacter baumannii xanthine oxidase; "wild-type" = AbXDH Y351V) (Acinetobacter baumannii, UniProt A0A0U3AJU6).
T1 construct: gene xdhB
The note with it: 50 mmol/L Tris/HCl pH 8.5, 40 °C; apparent Km; paper's wild-type carries Y351V in A subunit; substrate inhibition constant; second site.

As to `O=c1[nH]c(=O)c2[nH]cnc2[nH]1` [xanthine], the “Ki” value came out at 21.11 mM.
